In the supplement of paper PMC10307832:

Assays:
Assay in all cases: relative viability (nuclei count vs DMSO), 5 days (fraction); higher = more cells survive
Quizartinib + Foretinib = compound: CC(C)(C)c1cc(NC(=O)Nc2ccc(-c3cn4c(n3)sc3cc(OCCN5CCOCC5)ccc34)cc2)no1 [Quizartinib] + COc1cc2c(Oc3ccc(NC(=O)C4(C(=O)Nc5ccc(F)cc5)CC4)cc3F)ccnc2cc1OCCCN1CCOCC1 [Foretinib] (partner 0.25 µM)
Procedure, shortened: (§1)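 Cells from lung cancer lines were seeded into 1536-well plates and, one day later, dosed by pin tool. Treatments were either a single drug or a fixed dose of an anchor drug with five library-drug doses (not always all listed) in √10 steps. After 5 days, nuclei were stained in a one-step fixation (final 0.05% Triton X-100, 1% formaldehyde, 1 ug/ml Hoechst) and counted on 4× images, and relative viability is the treated-to-vehicle nuclei ratio, as the median of duplicate plates.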

YM155 + Trametinib = compound: COCC[n+]1c2c(n(Cc3cnccn3)c1C)C(=O)c1ccccc1C2=O [YM155] + CC(=O)Nc1cccc(-n2c(=O)n(C3CC3)c(=O)c3c(Nc4ccc(I)cc4F)n(C)c(=O)c(C)c32)c1 [Trametinib] (partner 0.02 µM)
Procedure, shortened: as §1

Quizartinib + Vorinostat = compound: CC(C)(C)c1cc(NC(=O)Nc2ccc(-c3cn4c(n3)sc3cc(OCCN5CCOCC5)ccc34)cc2)no1 [Quizartinib] + O=C(CCCCCCC(=O)Nc1ccccc1)NO [Vorinostat] (partner 1 µM)
Procedure, shortened: as §1

YM155 + Navitoclax = compound: COCC[n+]1c2c(n(Cc3cnccn3)c1C)C(=O)c1ccccc1C2=O [YM155] + CC1(C)CCC(c2ccc(Cl)cc2)=C(CN2CCN(c3ccc(C(=O)NS(=O)(=O)c4ccc(N[C@H](CCN5CCOCC5)CSc5ccccc5)c(S(=O)(=O)C(F)(F)F)c4)cc3)CC2)C1 [Navitoclax] (partner 0.5 µM)
Procedure, shortened: as §1

Cell Line	relative viability (Quizartinib + Foretinib; first compound 0.001 µM)	relative viability (Quizartinib + Foretinib; first compound 0.003162 µM)	relative viability (Quizartinib + Foretinib; first compound 0.01 µM)	relative viability (Quizartinib + Foretinib; first compound 0.03162 µM)	relative viability (Quizartinib + Foretinib; first compound 0.1 µM)	relative viability (YM155 + Trametinib; first compound 0.002 µM)	relative viability (YM155 + Trametinib; first compound 0.006325 µM)	relative viability (YM155 + Trametinib; first compound 0.02 µM)	relative viability (YM155 + Trametinib; first compound 0.06325 µM)	relative viability (Quizartinib + Vorinostat; first compound 0.001 µM)	relative viability (Quizartinib + Vorinostat; first compound 0.003162 µM)	relative viability (Quizartinib + Vorinostat; first compound 0.01 µM)	relative viability (Quizartinib + Vorinostat; first compound 0.03162 µM)	relative viability (Quizartinib + Vorinostat; first compound 0.1 µM)	relative viability (YM155 + Navitoclax; first compound 0.002 µM)	relative viability (YM155 + Navitoclax; first compound 0.006325 µM)	relative viability (YM155 + Navitoclax; first compound 0.02 µM)	relative viability (YM155 + Navitoclax; first compound 0.06325 µM)
LU99A	0.715	0.871	0.838	0.808	0.603	0.539	0.496	0.641	0.56	0.373	0.51	0.449	0.481	0.502	0.753	0.729	0.756	0.677
EKVX	0.201	0.739	0.749	0.852	0.833	0.394	0.369	0.376	0.249		0.815	0.631	0.69	0.634	0.854	0.989	1.01	0.704
LC-2-ad	0.883	0.857	0.977		0.904	0.928	0.925	0.866	0.87	0.603	0.688	0.733	0.681	0.694	0.414	0.479	0.456	0.509
EBC-1	0.0847	0.105	0.0907	0.133	0.121										0.428	0.404	0.458	0.389
PC-14	0.844	0.893	0.973	0.953	0.971	0.617	0.672	0.36	0.119	0.707	0.693	0.858		0.858	1.02	1.06	0.997	0.982
NCI-H1395	0.961	0.971	1.02	0.995	1.03	1.04	1.02	1.08	1.2	0.685	1.09	0.695	0.623	0.858	1.4	0.799	1.53	1.55
NCI-H2405	0.96	1.04	1.03	1.05	1.07	0.661	0.595	0.596	0.384	0.943	0.967	0.763	0.902	1.17	0.891	0.602	0.699	0.226
SW 900	0.802	0.85		0.882	0.836		0.922	0.843	0.809	0.402	0.561	0.373	0.608	0.583				
NCI-H2009	1.24	1.17	1.29	1.17	1.21	0.273	0.295	0.354	0.358	0.673	0.697	0.652	0.696	0.761	1.16	1.13	1.06	0.567
EPLC-272H	0.535	0.685	0.75	0.682	0.669	0.294	0.27	0.335	0.302	0.427	0.337	0.484	0.58	0.692	1.14	1.11	1.13	1.18
